Source: publication PMC11755336 (Journal of Pharmaceutical Analysis, 2024)
Where two headings read alike, the source gives them in different places.

Key:
AChE [1] = target: AChE (Electrophorus electricus, UniProt O42275); test: biochemical; type: binding
AChE [2] = target: AChE (Homo sapiens, UniProt P22303); test: biochemical; type: biochemical
BV2 cells = test: Aβ phagocytosis assay in BV2 cells; type: cell-based, mice; conditions: versus control group
[3] = target: recombinant MAO-A from human (Homo sapiens, UniProt P21397); test: SPR affinity detection with MAO-A; type: binding
MAO-A = MAO-A (Homo sapiens, UniProt P21397); test: MAO-A inhibition rate, enhanced Weissbach's method; type: biochemical
[4] = rats, oral KXS 10 mL/kg (4 g/mL), 8 days

AChE (Electrophorus electricus, UniProt O42275), sequence (O42275 24-633): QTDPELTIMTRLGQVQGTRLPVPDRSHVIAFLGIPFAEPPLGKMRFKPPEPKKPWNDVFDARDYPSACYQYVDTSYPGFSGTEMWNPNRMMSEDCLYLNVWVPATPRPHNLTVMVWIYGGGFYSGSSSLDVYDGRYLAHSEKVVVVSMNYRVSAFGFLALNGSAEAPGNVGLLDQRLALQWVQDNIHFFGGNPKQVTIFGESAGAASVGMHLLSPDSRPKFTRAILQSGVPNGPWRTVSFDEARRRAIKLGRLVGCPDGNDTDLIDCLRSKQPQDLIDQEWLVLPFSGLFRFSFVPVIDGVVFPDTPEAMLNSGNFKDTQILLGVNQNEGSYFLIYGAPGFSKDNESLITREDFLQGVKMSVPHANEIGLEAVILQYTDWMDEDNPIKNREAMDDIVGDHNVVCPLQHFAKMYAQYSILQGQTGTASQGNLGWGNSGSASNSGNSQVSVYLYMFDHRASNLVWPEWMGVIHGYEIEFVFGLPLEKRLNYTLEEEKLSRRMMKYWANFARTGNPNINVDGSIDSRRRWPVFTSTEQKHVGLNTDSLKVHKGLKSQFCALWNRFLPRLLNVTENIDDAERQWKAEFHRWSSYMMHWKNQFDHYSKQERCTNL
MAO-A, sequence (P21397 whole entry): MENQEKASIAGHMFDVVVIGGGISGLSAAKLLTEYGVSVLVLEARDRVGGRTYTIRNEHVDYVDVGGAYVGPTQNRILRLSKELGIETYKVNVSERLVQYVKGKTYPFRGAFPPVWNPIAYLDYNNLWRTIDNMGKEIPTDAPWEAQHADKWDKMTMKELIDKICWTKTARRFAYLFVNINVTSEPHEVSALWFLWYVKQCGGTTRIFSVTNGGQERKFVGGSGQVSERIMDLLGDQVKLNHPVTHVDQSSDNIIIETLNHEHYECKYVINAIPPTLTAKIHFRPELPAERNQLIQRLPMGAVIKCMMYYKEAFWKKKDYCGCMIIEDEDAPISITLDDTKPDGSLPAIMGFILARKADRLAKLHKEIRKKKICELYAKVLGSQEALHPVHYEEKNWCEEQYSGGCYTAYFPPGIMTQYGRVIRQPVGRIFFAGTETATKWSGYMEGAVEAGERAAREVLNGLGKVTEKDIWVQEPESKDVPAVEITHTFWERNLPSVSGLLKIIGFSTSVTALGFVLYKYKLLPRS
recombinant MAO-A from human, sequence (P21397 whole entry): as above

For `COc1cc2c(=O)c3c(O)c([C@@H]4O[C@H](CO)[C@@H](O)[C@H](O)[C@H]4O)c(O)cc3oc2cc1O` [7-O-methylmangiferin], which Kd (AChE [1]; read-out: AChE Affinity KD) is on record?
The Kd was 16.9 µM.

And the “inhibitory effect on AChE (in words)” value (AChE [2])?
Its value is “relatively low”.

What about the IC50 (AChE [2]; read-out: AChE IC50) of the same molecule?
Its IC50 is 2.98 ± 0.245 µM.

With `CC1=CCC(O)(C(C)C)CC1` (stereo not shown) [terpinen-4-ol] as the molecule, how does the “phagocytic ability of BV2 cells towards FITC-Aβ1−42 (fluorescence intensity)” value (from here on “phagocytic ability”) (BV2 cells) read?
Its value is “effectively enhanced the phagocytic capability”.

And the “phagocytic ability” value (BV2 cells; listed as terpiene-4-ol)?
Its value is “weaker phagocytic ability”.

With `C=CCc1ccc(OC)c(OC)c1` [Methyl eugenol] as the molecule, how does the Kd [3] read?
The Kd was 5.83 µM.

And the “phagocytic ability” value (BV2 cells)?
Its value is “weaker phagocytic ability”.

What about the IC50 (MAO-A) of the same molecule?
The IC50 was 96.1 ± 9.87 µM.

What does the source list for `CCCCCCCCCCCCCCCC(=O)OC` [methyl palmitate]?
AChE inhibition rate (AChE [2]): exceeding 80%; phagocytic ability of BV2 cells towards FITC-Aβ1−42 (fluorescence intensity) (BV2 cells): effectively enhanced the phagocytic capability

For `C=CCc1ccc(OC)cc1` [Estragole], which Kd [3] is on record?
Its Kd is 2.35 µM.

And the “phagocytic ability” value (BV2 cells)?
The value was “notable improvements in phagocytic activity”.

And the IC50 (MAO-A)?
Its IC50 is 144 ± 7.43 µM.

Which results are given for `C/C=C/c1cc(OC)c(OC)cc1OC` [α-asarone]?
phagocytic ability of BV2 cells towards FITC-Aβ1−42 (fluorescence intensity) (BV2 cells): notable improvements in phagocytic activity; detection in brain tissue [4]: found in brain samples

Which Kd (AChE [1]) does the source give for `CC12CCC(CC1=O)C2(C)C` (stereo not shown) [Camphor] here?
Its Kd is 0.0251 µM.

What about the AChE inhibition rate (AChE [2]) of the same molecule?
The AChE inhibition rate was “exceeding 80%”.

And the IC50 (AChE [2])?
Its IC50 is 6.23 ± 0.567 µM.

What about the “phagocytic ability” value (BV2 cells) of the same molecule?
The value was “effectively enhanced the phagocytic capability”.

Which Kd (AChE [1]) does the source give for `CC(C)(C)c1ccc(O)c(C(C)(C)C)c1` [2,4-Di-tert-butylphenol] here?
Its Kd is 0.133 µM.

What about the IC50 (AChE [2]) of the same molecule?
Its IC50 is 4.51 ± 0.191 µM.

What about the “AChE inhibitory rate compared with galantamine” value (AChE [2]; 25 μM) of the same molecule?
Its value is “surpassed that of galantamine”.

And the “phagocytic ability” value (BV2 cells)?
Its value is “notable improvements in phagocytic activity”.

Which Kd (AChE [1]) does the source give for `C/C=C/c1ccc(OC)c(OC)c1` [Methyl isoeugenol] here?
The Kd was 0.0185 µM.

What about the IC50 (AChE [2]) of the same molecule?
The IC50 was 9.68 ± 0.353 µM.

And the “phagocytic ability” value (BV2 cells)?
The value was “weaker phagocytic ability”.

Which Kd [3] does the source give for `C=CCc1cc(OC)c(OC)c(OC)c1` [Elemicin] here?
The Kd was 4.69 µM.

And the “phagocytic ability” value (BV2 cells)?
Its value is “significantly enhanced phagocytic ability”.

And the IC50 (MAO-A)?
Its IC50 is 62.2 ± 1.08 µM.

And the “MAO-A inhibition rate (in words)” value (MAO-A; concentrations up to 50 μM)?
Its value is “comparable inhibition rate”.

With `C/C=C\c1cc(OC)c(OC)cc1OC` [β-asarone] as the molecule, how does the “phagocytic ability” value (BV2 cells) read?
The value was “notable improvements in phagocytic activity”.

And the “detection in brain tissue” value [4]?
The value was “found in brain samples”.

For `O=c1c2cc(O)ccc2oc2cc(O)c([C@@H]3O[C@H](CO)[C@@H](O)[C@H](O)[C@H]3O[C@@H]3OC[C@](O)(CO)[C@H]3O)c(O)c12` [Sibiricaxanthone B], which Kd (AChE [1]; read-out: AChE Affinity KD) is on record?
The Kd was 1.2 µM.

For `C#CCN(C)CCCOc1ccc(Cl)cc1Cl` [Clorgyline, reference compound], which “MAO-A inhibition rate (in words)” value (MAO-A) is on record?
Its value is “highest inhibition rate”.
